Like-named read-outs stand apart in the source and are kept apart here.
Key:
Recombinant human Src = molecular target: T1, Recombinant human Src (Homo sapiens, UniProt P12931); assay: Src tyrosine kinase activity assay with poly E4Y and 32P-ATP; type: biochemical
T1 construct: made in house; host or cells: baculovirus-insect cell system
Method: (§1) Recombinant human Src was expressed using the baculovirus-insect cell system and purified as published (Budde et al., 1993 and 2000). Recombinant Csk and the FGF receptor (FGFr) were expressed as […] fusion proteins using the pGEX expression vector and E. coli, and purified as described (Sun & Budde, 1995).
(§2) The tyrosine kinase activity of Src, Csk and FGFr was determined using poly E4Y and ^32P-ATP. Briefly, enzymes were assayed in a reaction mixture […] consisting of 0.15 M EPPS-NaOH (pH 8.0) with 6 mM MgCl2, 0.2 mM γ^32P-ATP (0.2-0.4 mCi/μmol), 10% glycerol, 0.1% Triton X-100, and poly E4Y. Poly E4Y is a synthetic peptide whose phosphorylation is measured in this assay by the addition of the radioactively labeled phosphate from the ATP (Budde et al., 1995). […] When ATP was varied (0, 50, 100 and 250 μM), poly E4Y was kept constant at 150 μg/ml.

Recombinant Csk = molecular target: T2, Recombinant Csk (Homo sapiens, UniProt P41240); assay: Csk tyrosine kinase activity assay with poly E4Y and 32P-ATP; type: biochemical; conditions: NI = no inhibition
T2 construct: GST ('glutathione-5-transferase' [sic]); made in house; host or cells: E. coli (pGEX expression vector)
T2 sequence (P41240 whole entry, species assumed): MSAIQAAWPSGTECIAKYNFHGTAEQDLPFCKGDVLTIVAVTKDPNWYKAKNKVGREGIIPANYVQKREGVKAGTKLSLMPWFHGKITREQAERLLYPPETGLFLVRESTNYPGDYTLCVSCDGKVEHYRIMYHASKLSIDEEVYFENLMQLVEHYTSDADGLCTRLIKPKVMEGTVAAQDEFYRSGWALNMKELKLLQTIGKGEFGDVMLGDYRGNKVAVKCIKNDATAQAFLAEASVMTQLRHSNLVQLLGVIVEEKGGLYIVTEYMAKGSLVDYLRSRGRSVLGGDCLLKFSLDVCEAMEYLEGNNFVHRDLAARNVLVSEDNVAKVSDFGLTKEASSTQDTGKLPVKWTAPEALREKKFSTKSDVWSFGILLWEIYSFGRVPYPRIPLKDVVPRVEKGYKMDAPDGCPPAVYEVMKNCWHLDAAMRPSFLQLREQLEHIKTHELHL
Method: as §1, §2

[1] = poly E4Y, 32P-ATP, NI = no inhibition, read-out: IC50 Value Src
[2] = especially good inhibitors of Src, screening assay 50 μg/ml poly E4Y, 0.2 mM ATP, read-out: IC50 (inhibitors of Src)

T1 sequence (P12931 whole entry): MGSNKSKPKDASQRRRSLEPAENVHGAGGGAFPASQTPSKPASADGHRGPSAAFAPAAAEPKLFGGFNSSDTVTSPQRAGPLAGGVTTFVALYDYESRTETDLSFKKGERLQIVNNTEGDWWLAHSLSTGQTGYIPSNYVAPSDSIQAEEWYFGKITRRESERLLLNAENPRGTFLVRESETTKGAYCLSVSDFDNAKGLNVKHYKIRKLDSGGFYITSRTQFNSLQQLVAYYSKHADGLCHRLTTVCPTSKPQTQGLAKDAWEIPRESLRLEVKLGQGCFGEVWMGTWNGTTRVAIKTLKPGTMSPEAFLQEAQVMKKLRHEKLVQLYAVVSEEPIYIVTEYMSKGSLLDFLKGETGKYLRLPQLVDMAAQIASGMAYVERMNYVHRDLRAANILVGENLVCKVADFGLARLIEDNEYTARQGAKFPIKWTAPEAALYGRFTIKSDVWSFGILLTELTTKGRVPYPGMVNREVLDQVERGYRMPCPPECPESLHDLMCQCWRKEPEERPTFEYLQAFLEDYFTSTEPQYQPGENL

Compound | IC50 (Recombinant human Src; [1]) | IC50 (Recombinant Csk) | IC50 (Recombinant human Src; [2])
CCOc1ccccc1-c1sc2c(NN=Cc3ccc(OC)c(O)c3)ncnc2c1CO [Compound 33, 3-Hydroxy-4-methoxybenzaldehyde (7-hydroxymethyl-6-(2-ethoxyphenyl)thieno[3,2-d]pyrimidin-4-yl)hydrazone] | 11 nM | 10000 nM | –
C=Cc1c(-c2ccccc2OCC)sc2c(NN=Cc3ccc(OC)c(O)c3)ncnc12 [Compound 34, 3-Hydroxy-4-methoxybenzaldehyde (6-(2-ethoxyphenyl)-7-vinylthieno[3,2-d]pyrimidin-4-yl)hydrazone] | 39 nM | 1350 nM | ≤ 2000 nM
CCOc1ccccc1-c1sc2c(NN=Cc3ccc(OC)c(O)c3)ncnc2c1O [Compound 37, 3-Hydroxy-4-methoxybenzaldehyde (6-(2-ethoxyphenyl)-7-hydroxythieno[3,2-d]pyrimidin-4-yl)hydrazone] | 2.6 nM | 1280 nM | ≤ 2000 nM
COc1ccc(C=NNc2ncnc3c(C)c(-c4ccc([N+](=O)[O-])cc4)sc23)cc1O [Compound 39, 3-Hydroxy-4-methoxybenzaldehyde (6-(4-nitrophenyl)-7-methylthieno[3,2-d]pyrimidin-4-yl)hydrazone] | 160 nM | 23000 nM | –
COc1ccc(C=NNc2ncnc3c(C)c(-c4ccc(N(C)C)cc4)sc23)cc1O [Compound 42, 3-Hydroxy-4-methoxybenzaldehyde (6-(4-N,N-dimethylaminophenyl)-7-methylthieno[3,2-d]pyrimidin-4-yl)hydrazone] | 72 nM | 460 nM | ≤ 2000 nM
COc1ccc(C=NNc2ncnc3c(C)c(-c4ccc(NC(C)=O)cc4)sc23)cc1O [Compound 43, 3-Hydroxy-4-methoxybenzaldehyde (6-(4-N-acetylaminophenyl)-7-methythieno[3,2-d]pyrimidin-4-yl)hydrazone] | 12 nM | 112000 nM | –
COc1ccc(C=NNc2ncnc3c(C)c(-c4cccc(C(N)=NO)c4)sc23)cc1O [Compound 45] | 19 nM | 26800 nM | –
Cc1c(-c2cccc(C(N)=NO)c2)sc2c(NN=Cc3cccnc3)ncnc12 [Compound 49, 3-Pyridinecarboxaldehyde (6-(N-hydroxy-benzamidin-3-yl)-7-methylthieno[3,2-d]pyrimidin-4-yl)hydrazone] | 4.1 nM | 124000 nM | –
Cc1c(-c2ccc(C(N)=NO)cc2)sc2c(NN=Cc3cccnc3)ncnc12 [Compound 50, 3-Pyridinecarboxaldehyde (6-(N-hydroxy-benzamidin-4-yl)-7-methylthieno[3,2-d]pyrimidin-4-yl)hydrazone] | 25 nM | 42000 nM | –
COc1ccc(C=NNc2ncnc3c(C)c(-c4ccc(C(N)=NO)cc4)sc23)cc1O [Compound 51, 3-Hydroxy-4-methoxybenzaldehyde (6-(N-hydroxy-benzamidin-4-yl)-7-methylthieno[3,2-d]pyrimidin-4-yl)hydrazone] | 11 nM | 47000 nM | –
CCOc1ccccc1-c1sc2c(NN=Cc3ccc(OC)c(OCCN4CCOCC4)c3)ncnc2c1C [Compound 52, 4-Methoxy-3-(2-(morpholin-4-yl)-ethoxy)-benzaldehyde (6-(2-ethoxyphenyl)-7-methylthieno[3,2-d]pyrimidin-4-yl)hydrazone] | 1.1 nM | 46000 nM | –
CCOc1ccccc1-c1sc2c(NN=Cc3ccc(OCCN4CCOCC4)c(OC)c3)ncnc2c1C [Compound 54, 3-Methoxy-4-(2-(morpholin-4-yl)-ethoxy)-benzaldehyde (6-(2-ethoxyphenyl)-7-methylthieno[3,2-d]pyrimidin-4-yl)hydrazone] | 1.4 nM | 110000 nM | –
COc1ccc(C=NNc2ncnc3c(CO)c(-c4ccc(N)cc4)sc23)cc1O [Compound 58, 3-Hydroxy-4-methoxybenzaldehyde (6-(4-aminophenyl)-7-hydroxymethylthieno[3,2-d]pyrimidin-4-yl)hydrazone] | 43 nM | 12000 nM | –
CCOc1cc(F)ccc1-c1sc2c(NN=Cc3ccc(OC)c(O)c3)ncnc2c1CO [Compound 60, 3-Hydroxy-4-methoxybenzaldehyde (6-(2-ethoxy-4-fluorophenyl)-7-hydroxymethylthieno[3,2-d]pyrimidin-4-yl)hydrazone] | 36 nM | 210000 nM | –
COc1ccc(C=NNc2ncnc3c(C)c(-c4ccccc4O)sc23)cc1O [Compound 84, 3-Hydroxy-4-methoxybenzaldehyde (6-(2-hydroxyphenyl)-7-methylthieno[3,2-d]pyrimidin-4-yl)hydrazone] | 180 nM | 500000 nM | –
CCOc1ccccc1-c1sc2c(NN=Cc3cc(OC)c(O)c(OC)c3)ncnc2c1O [Compound 96, 3,5-Dimethoxy-4-hydroxybenzaldehyde (6-(2-ethoxyphenyl)-7-hydroxythieno[3,2-d]pyrimidin-4-yl)hydrazone] | 0.73 nM | 580 nM | ≤ 2000 nM
CCOc1ccccc1-c1sc2c(NN=Cc3cc(O)c(OC)c(OC)c3)ncnc2c1O [Compound 100, 3,4-Dimethoxy-5-hydroxybenzaldehyde (6-(2-ethoxyphenyl)-7-hydroxythieno[3,2-d]pyrimidin-4-yl)hydrazone] | 1.3 nM | 2100 nM | –
CCOc1ccccc1-c1sc2c(NN=Cc3ccc(O)cc3)ncnc2c1O [Compound 104, 4-Hydroxybenzaldehyde (6-(2-ethoxyphenyl)-7-hydroxythieno[3,2-d]pyrimidin-4-yl)hydrazone] | 1.6 nM | 980 nM | ≤ 2000 nM
CCOc1ccccc1-c1sc2c(NN=Cc3cccc(O)c3)ncnc2c1O [Compound 105, 3-Hydroxybenzaldehyde (6-(2-ethoxyphenyl)-7-hydroxythieno[3,2-d]pyrimidin-4-yl)hydrazone] | 4.3 nM | 900 nM | ≤ 2000 nM
CCOc1cc(F)ccc1-c1sc2c(NN=Cc3cc(OC)c(OCCN(CC)CC)c(OC)c3)ncnc2c1C [Compound 160, 4-(2-Diethylamino-ethoxy)-3,5-dimethoxy-benzaldehyde (6-(2-ethoxy-4-fluorophenyl)-7-methylthieno[3,2-d]pyrimidin-4-yl)hydrazone] | 0.3 nM | – | –
CCOc1ccccc1-c1sc2c(NN=Cc3ccc(OC)c(O)c3)ncnc2c1CC [compound 35] | 14 nM | – | –
CCOc1ccccc1-c1sc2c(NN=Cc3ccc(OC)c(O)c3)ncnc2c1C#N [compound 47] | 1.5 nM | – | –
CCOc1ccccc1-c1sc2c(NN=Cc3cccnc3)ncnc2c1C#N [compound 67] | 1.2 nM | – | –

Compound | IC50 (Recombinant human Src; [1]) | IC50 (Recombinant Csk) | IC50 (Recombinant human Src; [2])
CCOc1ccccc1-c1sc2c(NN=Cc3ccc(O)c(OC)c3)ncnc2c1C#N [compound 86] | 1.4 nM | – | –
CCOc1ccccc1-c1sc2c(NN=Cc3cc(Br)c(O)c(OC)c3)ncnc2c1C#N [compound 87] | 0.31 nM | – | –
CCOc1ccccc1-c1sc2c(NN=Cc3ccc(O)c(Cl)c3)ncnc2c1C#N [compound 90] | 2.1 nM | – | –
CCOc1ccccc1-c1sc2c(NN=Cc3ccsc3)ncnc2c1C#N [compound 91] | 0.58 nM | – | –
CCOc1ccccc1-c1sc2c(NN=Cc3cc(OC)c(O)c(OC)c3)ncnc2c1C#N [compound 94] | 0.34 nM | – | –
CCOc1ccccc1-c1sc2c(NN=Cc3ncc[nH]3)ncnc2c1C#N [compound 95] | 25 nM | – | –
CCOc1ccccc1-c1sc2c(NN=Cc3cc(O)c(OC)c(OC)c3)ncnc2c1C#N [compound 98] | 1 nM | – | –
CCOc1ccccc1-c1sc2c(NN=Cc3ccc(O)cc3)ncnc2c1C#N [compound 102] | 1.5 nM | – | –
CCOc1cc(F)ccc1-c1sc2c(NN=Cc3cccs3)ncnc2c1C#N [compound 108] | 8.5 nM | – | –
CCOc1ccccc1-c1sc2c(NN=Cc3ccncc3)ncnc2c1C#N [compound 110] | 1.9 nM | – | –
CCOc1ccccc1-c1sc2c(NN=Cc3c[nH]c(=O)[nH]c3=O)ncnc2c1C#N [compound 111] | 12 nM | – | –
CCOc1ccccc1-c1sc2c(NN=Cc3cccc(C(=O)O)c3)ncnc2c1C#N [compound 114] | 3.2 nM | – | –
CCOc1ccccc1-c1sc2c(NN=Cc3[nH]cnc3C)ncnc2c1C#N [compound 115] | 2.6 nM | – | –
CCOc1ccccc1-c1sc2c(NN=Cc3ccc(C(=O)OC)cc3)ncnc2c1C#N [compound 118] | 22 nM | – | –
CCOc1ccccc1-c1sc2c(NN=Cc3ccco3)ncnc2c1C#N [compound 119] | 4.7 nM | – | –
CCOc1ccccc1-c1sc2c(NN=Cc3sccc3C)ncnc2c1C#N [compound 122] | 5.2 nM | – | –
CCOc1ccccc1-c1sc2c(NN=Cc3ccc(C)s3)ncnc2c1C#N [compound 126] | 4.9 nM | – | –
CCOc1ccccc1-c1sc2c(NN=Cc3ccoc3)ncnc2c1C#N [compound 127] | 3 nM | – | –
CCOc1ccccc1-c1sc2c(NN=Cc3ccc(NC(C)=O)cc3)ncnc2c1C#N [compound 130] | 1.8 nM | – | –
CCOc1ccccc1-c1sc2c(NN=Cc3ccc(N(C)C)cc3)ncnc2c1C#N [compound 131] | 130 nM | – | –
CCOc1ccccc1-c1sc2c(NN=Cc3ccc(C)o3)ncnc2c1C#N [compound 134] | 2.6 nM | – | –
CCOc1ccccc1-c1sc2c(NN=Cc3ccc(F)cc3)ncnc2c1C#N [compound 135] | 4 nM | – | –
CCOc1ccccc1-c1sc2c(NN=Cc3nccn3C)ncnc2c1C#N [compound 138] | 18 nM | – | –

From patent US20060004002A1 (priority 2004, published 2006)
